The subject of one assay is C. jejuni. Put plainly: C. jejuni in vitro growth inhibition in BHI broth (OD600). It counts as cell-based, Campylobacter jejuni. The settings on record: 1 mM, 48 hours in BHI broth; for C. jejuni growth, OD600: microaerobic, without bile acid 0.153. As to the method: To evaluate bile acids on C. jejuni growth, the bacterium was inoculated in BHI broth. The medium was also added final concentration of 0, 0.2, 0.5, and 1 mM DCA, and 1 mM TCA and CA. After 48-hour culture under microaerobic condition, the bacterium growth was measured at OD600.

Assay [1] deals with C. perfringens. The experiment in a line: microbe, parasite or virus in culture. It counts as cell-based, Clostridium perfringens.
Assay [2] in a line: Separate growth experiment, 26 days: body weight gain and ileal fat and nitrogen levels. The settings on record: 1.5 g/kg feed DCA diet for 26 days vs basal diet. It counts as in vivo, broiler chicks. As to the method: In a separate experiment, birds were fed diet supplementing with DCA at 1.5 g/kg feed. After 26 days the birds were weighed and sacrificed and ileal content were collected. The dry matter (DM), crude fat, and nitrogen levels in the ileal content was analyzed at the Central Analytical Lab at Department of Poultry Science at University of Arkansas at Fayetteville, Ark.

In a further assay the test system is Infγ, Tnfα and Mmp9 mRNA. On the set-up: species or system broiler chicks. As to conditions: in vivo.
Another assay has as its system C. jejuni strain 81-176. Put plainly: C. jejuni 81-176 cecal colonization in broiler chicks fed DCA diet. It counts as in vivo. As to conditions: 1.5 g/kg DCA diet, 10^9 CFU/chick C. jejuni 81-176 at 14 days of age.
A short description of assay [3]: Broiler growth performance (body weight gain, feed conversion ratio) on DCA diet. It counts as in vivo, broiler chicks.
The subject of assay [4] is E. maxima and C. perfringens. It counts as in vivo, broiler chicks.
The next assay has as its system Ptgs2 and Atp6vg1 mRNA. The experiment in a line: Host response gene mRNA accumulation in ileal tissue (real time PCR). It counts as in vivo. The settings on record: DCA diet; chicken ileal tissue; normalized to Gapdh. As to the method: Total RNA from chicken intestinal tissue was extracted using TRIzol (Invitrogen, Carlsbad, Calif.). Briefly, after bead beater disruption in TRIzol and chloroform and centrifugation, supernatant was precipitated with isopropanol. The pelleted RNA was washed once with 75% ethanol. The final RNA was dissolved in DNase/RNase free water and stored in −80° C. freezer. Complementary DNA was prepared using M-MLV (NEB).
Messenger RNA levels of proinflammatory genes were determined using SYBR Green PCR Master Mix (Bio-Rad, Hercules, Calif.) on an Bio-Rad 384-well Real-Time PCR System and normalized to Gapdh. The polymerase chain reactions were performed on 384-well real time PCR machine (Bio-Rad, Hercules, Calif.) according to the manufacturer's recommendation. […]

The subject of assay [5] is C. perfringens 16S, Cpb and Virx mRNA. On the set-up: species or system broiler chicks. As to conditions: in vivo.
For assay [6], the system named is C. perfringens. It counts as in vivo, broiler chicks. The settings on record: DCA birds vs NE control birds; 16S rDNA real time PCR.
In assay [7] the test system is E. maxima and C. perfringens. It counts as in vivo, broiler chicks. This is another data set of the same source.

Read-outs that look alike come from different tables or passages of the source.

As for `C[C@H](CCC(=O)NCCS(=O)(=O)O)[C@H]1CC[C@H]2[C@@H]3[C@H](O)C[C@@H]4C[C@H](O)CC[C@]4(C)[C@H]3C[C@H](O)[C@]12C` [TCA, taurocholic acid, reference compound], in the assay on C. jejuni, the “effect on C. jejuni growth” value is reported as “failed to inhibit C. jejuni growth” and the “C. jejuni growth, OD600” value came to 0.197. Besides, the “inhibition of C. perfringens growth” value in the assay on C. perfringens [1] is on record as “failed to prevent its growth”.
In the case of `C[C@H](CCC(=O)O)[C@H]1CC[C@H]2[C@@H]3CC[C@@H]4C[C@H](O)CC[C@]4(C)[C@H]3C[C@H](O)[C@]12C` [DCA, deoxycholic acid], the “growth performance on body weight gain” value in assay [2] is “promoted bird growth performance on body weight gain”. In the assay with Infγ, Tnfα and Mmp9 mRNA, the “attenuation of NE-induced Infγ mRNA accumulation” value came to 51%, the “attenuation of NE-induced Mmp9 mRNA accumulation” value came to 66% and the “attenuation of NE-induced Tnfα mRNA accumulation” value was 82%. Also, in the assay on C. jejuni strain 81-176 (2 days PI), the “C. jejuni colonization level in ceca” value is on record as 0 CFU/g. Besides, the “C. jejuni colonization level in ceca” value in the assay with C. jejuni strain 81-176 (7 days PI) is 9.0×10^2 CFU/g. Besides, the “C. jejuni colonization level in ceca” value with C. jejuni strain 81-176 (14 days PI) was found to be 0 CFU/g. Also, in assay [3], the “accumulative feed conversion ratio improvement compared to control diet” value was found to be 16.6%. For the same compound, the “body weight gain increase compared to control diet” value in assay [3] (at 28 days of age) is 11.9%. For the same compound, the body weight gain in assay [3] (at 28 days of age, control diet 2.86) came out at 3.20 lb. Besides, the “accumulative feed conversion ratio” value in assay [3] (control diet 1.81, lower value means better feed efficiency) amounted to 1.51. Besides, the “productivity / body weight gain loss at coccidiosis phase” value in [4] (1.5 g/kg diet, d 18-23, compared to Em and NE control birds) is given as “prevented productivity loss”. Further, in [4] (1.5 g/kg diet, d 23-26, compared to NE control birds), the “productivity / body weight gain loss at NE phase” value was “prevented productivity loss”. For the same compound, the “growth performance on body weight gain and feed efficiency before infection” value in assay [4] (1.5 g/kg diet, during 1-14 and 14-18 days of age, compared to birds fed other diets) is “promoted bird growth performance on body weight gain (FIG. 9A) and feed efficiency”. Also, in the assay on Ptgs2 and Atp6vg1 mRNA, the “Atp6vg1 mRNA accumulation change compared to control diet” value was “+40%” and the “Ptgs2 mRNA accumulation change compared to control diet” value is reported as “+92%”. Also, in assay [5], the “block of C. perfringens 16S mRNA accumulation” value worked out at 97%, the “block of C. perfringens Cpb mRNA accumulation” value is reported as 61% and the “block of C. perfringens Virx mRNA accumulation” value is on record as 61%. Moreover, the “ileal luminal C. perfringens load” value in the assay on C. perfringens [6] is recorded as “not significantly different from NE control birds”. Further, in the assay on C. jejuni, the “effect on C. jejuni growth” value was “slightly enhanced but not inhibit C. jejuni growth” and the “C. jejuni growth, OD600” value came out at 0.213. The “inhibition of C. perfringens growth” value with C. perfringens [1] (0.4 mM, TSB, overnight, anaerobic, OD600) was 87%. Besides, the “NE-induced intestinal inflammation and histopathology score” value in [7] (1.5 g/kg diet, upper ileum, H&E, vs NE control birds) is given as “significantly attenuated”.
For the compound `C[C@H](CCC(=O)O)[C@H]1CC[C@H]2[C@@H]3[C@H](O)C[C@@H]4C[C@H](O)CC[C@]4(C)[C@H]3C[C@H](O)[C@]12C` [CA, cholic acid], in [4] (in vivo), the “productivity / body weight gain loss at NE phase” value is “attenuated body weight gain loss” and the “productivity / body weight gain loss at coccidiosis phase” value was “failed”. Besides, in the assay with C. jejuni, the “effect on C. jejuni growth” value was “failed to inhibit C. jejuni growth” and the “C. jejuni growth, OD600” value amounted to 0.19. The inhibition at 1000 µM in the assay on C. perfringens [1] (Clostridium perfringens, 1 mM, read-out: inhibition of C. perfringens growth) was determined as 30%. For the same compound, the “NE-induced intestinal inflammation and histopathology score” value in [7] (in vivo) is listed as “reduces bird NE intestinal inflammation”.

These data come from patent US20180360072A1 (priority 2017, published 2018).
